Read-outs that look alike come from different tables or passages of the source.
Key:
[1] = test system: T1, Ts_Bad; assay: NADH oxidation, A340; format: biochemical, Thermoanaerobacter sp. (strain X514); details: 0.3 mM NADH, 100 mM MOPS-KOH pH 7.5, 55 °C, anaerobic
T1 construct: gene bad; His-tagged (vector pD861-CH), codon-optimised, expressed in E. coli BL21(DE3), purified anaerobically
From the text: NADH oxidation, A340 on Ts_Bad

[2] = biological target: T2, Tt_Hbd (Thermoanaerobacterium thermosaccharolyticum, UniProt P77851, D31A/I32R, form not given); assay: NAD(P)H oxidation, A340; format: biochemical; details: acetoacetyl-CoA as substrate, 100 mM MOPS-KOH pH 7.5, 55 °C
T2 construct: gene hbd; His-tagged (vector pD861-CH), codon-optimised, expressed in E. coli BL21(DE3)
T2 sequence (P77851 whole entry D31A/I32R, form open): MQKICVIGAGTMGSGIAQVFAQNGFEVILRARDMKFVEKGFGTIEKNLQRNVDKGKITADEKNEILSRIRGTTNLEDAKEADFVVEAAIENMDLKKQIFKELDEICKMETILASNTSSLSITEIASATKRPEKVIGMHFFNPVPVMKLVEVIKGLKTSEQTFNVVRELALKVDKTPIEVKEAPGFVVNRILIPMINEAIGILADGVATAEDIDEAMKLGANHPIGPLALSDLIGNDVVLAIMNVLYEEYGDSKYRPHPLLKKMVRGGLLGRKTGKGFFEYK
From the text: NAD(P)H oxidation, A340 on Tt_Hbd

SMILES | Km [1] [µM] | further results
CC(=O)SCCNC(=O)CCNC(=O)[C@H](O)C(C)(C)COP(=O)(O)OP(=O)(O)OC[C@H]1O[C@@H](n2cnc3c(N)ncnc32)[C@H](O)[C@@H]1OP(=O)(O)O [Acetyl-CoA] | 90 ± 10 | –
CCCC(=O)SCCNC(=O)CCNC(=O)[C@H](O)C(C)(C)COP(=O)(O)OP(=O)(O)OC[C@H]1O[C@@H](n2cnc3c(N)ncnc32)[C@H](O)[C@@H]1OP(=O)(O)O [Butyryl-CoA] | 200 ± 100 | –
NC(=O)C1=CN([C@@H]2O[C@H](COP(=O)(O)OP(=O)(O)OC[C@H]3O[C@@H](n4cnc5c(N)ncnc54)[C@H](O)[C@@H]3O)[C@@H](O)[C@H]2O)C=CC1 [NADH] | – | Km ([2]; read-out: NADH / Km): 110 ± 20 µM
NC(=O)C1=CN([C@@H]2O[C@H](COP(=O)(O)OP(=O)(O)OC[C@H]3O[C@@H](n4cnc5c(N)ncnc54)[C@H](OP(=O)(O)O)[C@@H]3O)[C@@H](O)[C@H]2O)C=CC1 [NADPH] | – | Km ([2]; read-out: NADPH / Km): 30 ± 10 µM
